In the supplement of paper PMC10733146:

Tests used:
Assay in all cases: viability relative to DMSO control (fraction); higher = less drug effect (more viable cells)
Conditions in all cases: 48 h
[1] = compound: CC1(C)CCC(c2ccc(Cl)cc2)=C(CN2CCN(c3ccc(C(=O)NS(=O)(=O)c4ccc(N[C@H](CCN5CCOCC5)CSc5ccccc5)c(S(=O)(=O)C(F)(F)F)c4)cc3)CC2)C1 [Navitoclax]
Method in brief: (§1)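 Viability is given as CellTiter-Glo luminescence relative to the median of 16 inner DMSO wells. Fresh or cryopreserved primary mononuclear tumour cells from blood, bone marrow (both Ficoll-isolated) or processed lymph node were plated at 4 × 10^4 cells per well in 384-well plates against five pre-plated compound concentrations, one well each. Incubation lasted 48 h at 37 °C and 5% CO2 in RPMI-1640 with penicillin/streptomycin, L-glutamine and human serum.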

[2] = compound: CCNC(=O)C[C@@H]1N=C(c2ccc(Cl)cc2)c2cc(OC)ccc2-n2c(C)nnc21 [I-BET-762]
Method in brief: as §1

[3] = compound: CCS(=O)(=O)N1CCC([C@@H](C)n2c(C)c(C(=O)NCc3c(OC)cc(C)[nH]c3=O)c3ccccc32)CC1 [CPI-169]
Method in brief: as §1

[4] = compound: CC[C@H](CO)Nc1nc(NCc2ccccc2)c2ncn(C(C)C)c2n1 [Roscovitine]
Method in brief: as §1

[5] = compound: CC[C@]1(O)C[C@@H]2CN(CCc3c([nH]c4ccccc34)[C@@](C(=O)OC)(c3cc4c(cc3OC)N(C)[C@H]3[C@@](O)(C(N)=O)[C@H](O)[C@]5(CC)C=CCN6CC[C@]43[C@@H]65)C2)C1 [Vindesine]
Method in brief: as §1

[6] = compound: CCc1ccc(/C=C2/SC(=S)NC2=O)cc1
Method in brief: as §1

[7] = compound: CO[C@@H]1[C@H](N(C)C(=O)c2ccccc2)C[C@H]2O[C@]1(C)n1c3ccccc3c3c4c(c5c6ccccc6n2c5c31)C(=O)NC4 [Midostaurin hydrate]
Method in brief: as §1

[8] = compound: COc1cc(C(=O)O)ccc1NC(=O)[C@@H]1N[C@@H](CC(C)(C)C)[C@](C#N)(c2ccc(Cl)cc2F)[C@H]1c1cccc(Cl)c1F [Idasanutlin (RS7388)]
Method in brief: as §1

[9] = compound: C[C@@H]1CCN(C(=O)CC#N)C[C@@H]1N(C)c1ncnc2[nH]ccc12 [Tofacitinib]
Method in brief: as §1

[10] = compound: C[C@H](NC(=O)CCC(F)(F)F)C(=O)N[C@@H]1C(=O)N(CCO)c2ncccc2-c2ccccc21
Method in brief: as §1

[11] = compound: C[C@H]1C[C@@H](n2c(Nc3ccc(OC(F)(F)F)cc3)nc3cc(CCC(=O)O)ccc32)CC(C)(C)C1
Method in brief: as §1

[12] = compound: Cn1c(CCCC(=O)O)nc2cc(N(CCCl)CCCl)ccc21 [Bendamustine]
Method in brief: as §1

[13] = compound: Nc1cccc2c1C(=O)N(C1CCC(=O)NC1=O)C2=O [Pomalidomide]
Method in brief: as §1

[14] = compound: O=C(/C=C\n1cnc(-c2cc(C(F)(F)F)cc(C(F)(F)F)c2)n1)NNc1cnccn1 [Selinexor]
Method in brief: as §1

[15] = compound: O=C(NO)c1cccc(C(=O)NCCc2ccccc2)c1
Method in brief: as §1

primary AML patient cells (S091)
viability ([1]; 0.0032 µM): 0.94
viability ([1]; 0.016 µM): 0.866
viability ([1]; 0.08 µM): 0.544
viability ([1]; 0.4 µM): 0.328
viability ([1]; 2 µM): 0.259
viability ([2]; 0.008 µM): 0.966
viability ([2]; 0.04 µM): 0.826
viability ([2]; 0.2 µM): 0.567
viability ([2]; 1 µM): 0.378
viability ([2]; 5 µM): 0.24
viability ([3]; 0.024 µM): 0.849
viability ([3]; 0.12 µM): 1.65
viability ([3]; 0.6 µM): 1.01
viability ([3]; 3 µM): 0.893
viability ([3]; 15 µM): 0.802
viability ([4]; 0.032 µM): 0.838
viability ([4]; 0.16 µM): 1.16
viability ([4]; 0.8 µM): 0.82
viability ([4]; 4 µM): 1.02
viability ([4]; 20 µM): 0.776
viability ([5]; 0.016 µM): 1.05
viability ([5]; 0.08 µM): 0.98
viability ([5]; 0.4 µM): 0.768
viability ([5]; 2 µM): 0.73
viability ([5]; 10 µM): 0.631
viability ([6]; 0.024 µM): 0.831
viability ([6]; 0.12 µM): 0.869
viability ([6]; 0.6 µM): 0.92
viability ([6]; 3 µM): 0.934
viability ([6]; 15 µM): 0.935
viability ([7]; 0.024 µM): 0.881
viability ([7]; 0.12 µM): 0.983
viability ([7]; 0.6 µM): 1.17
viability ([7]; 3 µM): 1.6
viability ([7]; 15 µM): 1.46
viability ([8]; 0.032 µM): 0.577
viability ([8]; 0.16 µM): 0.493
viability ([8]; 0.8 µM): 0.393
viability ([8]; 4 µM): 0.469
viability ([8]; 20 µM): 0.348
viability ([9]; 0.024 µM): 0.946
viability ([9]; 0.12 µM): 0.947
viability ([9]; 0.6 µM): 0.898
viability ([9]; 3 µM): 0.903
viability ([9]; 15 µM): 1.03
viability ([10]; 0.016 µM): 0.962
viability ([10]; 0.08 µM): 1.02
viability ([10]; 0.4 µM): 0.993
viability ([10]; 2 µM): 1.27
viability ([10]; 10 µM): 1.18
viability ([11]; 0.024 µM): 1.08
viability ([11]; 0.12 µM): 0.891
viability ([11]; 0.6 µM): 0.776
viability ([11]; 3 µM): 1.11
viability ([11]; 15 µM): 0.965
viability ([12]; 0.032 µM): 0.978
viability ([12]; 0.16 µM): 1.05
viability ([12]; 0.8 µM): 1.06
viability ([12]; 4 µM): 0.874
viability ([12]; 20 µM): 0.557
viability ([13]; 0.0032 µM): 0.99
viability ([13]; 0.016 µM): 1.01
viability ([13]; 0.08 µM): 1.04
viability ([13]; 0.4 µM): 1.03
viability ([13]; 2 µM): 1.04
viability ([14]; 0.008 µM): 0.854
viability ([14]; 0.04 µM): 0.802
viability ([14]; 0.2 µM): 0.603
viability ([14]; 1 µM): 0.327
viability ([14]; 5 µM): 0.23
viability ([15]; 0.024 µM): 0.929
viability ([15]; 0.12 µM): 0.9
viability ([15]; 0.6 µM): 0.903
viability ([15]; 3 µM): 0.894
viability ([15]; 15 µM): 0.842

primary B-PLL patient cells (S016)
viability ([1]; 0.0032 µM): 1.16
viability ([1]; 0.016 µM): 1.14
viability ([1]; 0.08 µM): 0.767
viability ([1]; 0.4 µM): 0.158
viability ([1]; 2 µM): 0.0503
viability ([2]; 0.008 µM): 1.01
viability ([2]; 0.04 µM): 0.976
viability ([2]; 0.2 µM): 0.992
viability ([2]; 1 µM): 0.918
viability ([2]; 5 µM): 0.639
viability ([3]; 0.024 µM): 0.946
viability ([3]; 0.12 µM): 1.02
viability ([3]; 0.6 µM): 1.04
viability ([3]; 3 µM): 1.01
viability ([3]; 15 µM): 1.2
viability ([4]; 0.032 µM): 0.927
viability ([4]; 0.16 µM): 1.05
viability ([4]; 0.8 µM): 1.02
viability ([4]; 4 µM): 1.23
viability ([4]; 20 µM): 1.09
viability ([5]; 0.016 µM): 0.255
viability ([5]; 0.08 µM): 0.199
viability ([5]; 0.4 µM): 0.222
viability ([5]; 2 µM): 0.164
viability ([5]; 10 µM): 0.0777
viability ([6]; 0.024 µM): 0.982
viability ([6]; 0.12 µM): 0.922
viability ([6]; 0.6 µM): 1.1
viability ([6]; 3 µM): 0.971
viability ([6]; 15 µM): 0.963
viability ([7]; 0.024 µM): 0.999
viability ([7]; 0.12 µM): 0.949
viability ([7]; 0.6 µM): 1.05
viability ([7]; 3 µM): 0.925
viability ([7]; 15 µM): 0.616
viability ([8]; 0.032 µM): 0.719
viability ([8]; 0.16 µM): 0.923
viability ([8]; 0.8 µM): 0.333
viability ([8]; 4 µM): 0.0502
viability ([8]; 20 µM): 0.0489
viability ([9]; 0.024 µM): 0.953
viability ([9]; 0.12 µM): 0.991
viability ([9]; 0.6 µM): 0.994
viability ([9]; 3 µM): 1.06
viability ([9]; 15 µM): 1.03
viability ([10]; 0.016 µM): 1.29
viability ([10]; 0.08 µM): 1.24
viability ([10]; 0.4 µM): 1.09
viability ([10]; 2 µM): 1.08
viability ([10]; 10 µM): 0.949
viability ([11]; 0.024 µM): 0.932
viability ([11]; 0.12 µM): 1.22
viability ([11]; 0.6 µM): 1.08
viability ([11]; 3 µM): 0.967
viability ([11]; 15 µM): 1.03
viability ([12]; 0.032 µM): 0.965
viability ([12]; 0.16 µM): 0.953
viability ([12]; 0.8 µM): 1.04
viability ([12]; 4 µM): 0.864
viability ([12]; 20 µM): 0.496
viability ([13]; 0.0032 µM): 1.17
viability ([13]; 0.016 µM): 1.3
viability ([13]; 0.08 µM): 1.15
viability ([13]; 0.4 µM): 0.926
viability ([13]; 2 µM): 0.962
viability ([14]; 0.008 µM): 0.949
viability ([14]; 0.04 µM): 0.929
viability ([14]; 0.2 µM): 0.822
viability ([14]; 1 µM): 0.847
viability ([14]; 5 µM): 0.67
viability ([15]; 0.024 µM): 1.07
viability ([15]; 0.12 µM): 1.03
viability ([15]; 0.6 µM): 0.986
viability ([15]; 3 µM): 1.05
viability ([15]; 15 µM): 0.896
